From US12220399B2, “Pharmaceutical compositions comprising one or more pyrone compounds, and their use for treating inflammatory and neurodegenerative diseases” (NeuroTheryX Canada LTD, priority 2015, dated 2025)

Columns and labels:
[1] = tested on: MO3-13 cells; test: Protection of MO3-13 oligodendrocytes from Cpz toxicity; assay type: cell-based, human; conditions: compound at 5 μM, Cpz at 50 μM, 24 hrs, visual assessment, FIG. 2
Method: The protective effects of compounds […] on MO3-13 cells from Cpz toxicity were then determined. […] Cpz at a final concentration of 50 μM was solubilized in 100% ethanol was added to selected dishes with compound A1 or A2 at 5 μM in DMSO, or DMSO alone as a control.

[2] = tested on: myelin basic protein (MBP); test: Induction of myelin basic protein (MBP) production, anti-MBP slot blot of MO3-13 whole cell extracts; assay type: cell-based, human; conditions: FIG. 3
Method: Dilutions (0.1 mg/mL) of MO3-13 whole cell extracts were prepared and the proteins (5 μg) from the dilutions were blotted onto nitrocellulose membrane using a slot blotter. The non-protein sites on the blot were blocked with 2% ECL block in PBS-Tween20. Primary anti-Bov MBP was diluted in block solution at 300×. The primary antibody was incubated overnight at 4° C. with gentle shaking. The following day the blot was developed using enhanced ECL (GE Healthcare) method. Image of bound antibody were captured using Image Lab software driving a Bio-Rad ChemiDoc XRS+ image capture system.

[3] = tested on: MO3-13 cells; conditions: differentiated (serum deprived 48 hrs) MO3-13 cells, increasing amounts of Cpz, 24 hrs, visual assessment by phase contrast, FIG. 1
Method: MO3-13 cells were plated onto 10 cm cell culture dishes and grown in DMEM containing 5% FBS. Cells were grown to 75% confluence, after which serum containing DMEM medium was replaced with FBS free DMEM. Cells were grown for 48 hrs under serum deprived conditions.

[4] = MO3-13 cells treated with Cpz (50 μM) plus compound (5 μM)
[5] = MO3-13 cells treated with compound alone (5 μM)

Row | Structure (SMILES) | protection of human oligodendrocytes (MO3-13) against the toxicity of Cpz [1] | MBP bound by anti-MBP [2, 4] | MBP bound by anti-MBP [2, 5] | Cpz toxicity to MO3-13 cells [3] | anti-MBP antibody binding as compared with non-treated (DMSO) cells ([2]; MO3-13 cells treated with Cpz (50 μM))
1 | O=c1cc(-c2ccccc2)cc(-c2ccccc2)o1 [A3, 4,6-diphenyl-2H-pyran-2-one] | protection | significantly higher | significantly higher |  | 
2 | O=C(NN=C1CCCCC1)C(=O)NN=C1CCCCC1 [Cpz, cuprizone, reference compound] |  |  |  | toxic | reduced
3 | O=c1cc(-c2ccccc2)cc(C2CCCCC2)o1 [compound A2, 6-cyclohexyl-4-phenyl-2H-pyran-2-one] | protection | significantly higher | significantly higher |  | 
